Test results: patent publication US6841563B1, “Aryloxy propanolamines for improving livestock production” (Eli Lilly and Company, priority 1999, dated 2005)
Marks after values point to notes of the source that are not given here.

What was measured:
[1] = Weight gain, feed efficiency and carcass characteristics, last 14 days of growing period in broiler chickens; format: in vivo
Text: Approximately 1500 Peterson-Hubbard, day-old, male chicks were used in a randomized, complete-block design with 4 treatments (Control, Clenbuterol at 1 PPM, and Compound 6 at 3 and 15 PPM (mg/kg feed)). The testing facility contained 36 pens, divided equally into 6 blocks. Treatments were randomly allotted to pens within each block. Each treatment consisted of 6 pens with 10 birds per pen.
Day-of-age birds were obtained from Pine Manor Hatchery in Goshen, Ind. Approximately 40 birds per pen were set at random upon receipt. On day 30 of the growout period, all birds were weighed and the 15 birds closest to the block mean were selected. These birds were allowed to acclimate until day 35 of age. On that day, all remaining birds were weighed again, and the 10 birds/pen closest to the block mean were chosen for the treatment phase. Birds were provided ad libitum access to feed and water throughout the trial. All birds were fed a 23% crude protein corn-soy ration from day 1 until day 18 of age. The feed was changed to a 20% crude protein corn-soy ration from day 18 to day 49. The treatment feed was mixed using the same 20% crude protein basal ration. Treatments were administered in the feed from day 35 through day 49. Feed consumption was calculated over the entire 14-day treatment period. Birds were weighed at trial completion (day 49), and transported to Purdue University, West Lafayette, Ind. 47907, U.S.A. meat laboratory for slaughter and carcass measurements on day 50. Weights of the hot carcass, fat pad, and viscera were taken on all animals.

[2] = Intravenous administration to cattle: serum non-esterified fatty acid (NEFA) and serum urea nitrogen (SUN) levels; format: in vivo; conditions: for ΔNEFA 24 Hours / change in vivo at 0.04 mg/kg: 40 μg per kilogram i.v. twice; for ΔNEFA 24 Hours: T+24 h minus T=0; for ΔNEFA 24 Hours / ΔNEFA 15 Min. / change in vivo at 0.04 mg/kg: mean of five animals; for ΔNEFA 15 Min.: 40 μg per kilogram i.v., T+15 min minus T=0; for change in vivo at 0.04 mg/kg: Bos taurus, iv, 24 hours post treatment vs baseline T=0, read-out: Δ% SUN 24 Hours; for lipolytic effects (non-esterified fatty acid levels): fifteen minutes and twenty-four hours after administration; for anabolic effects (change in serum urea nitrogen levels): twenty-four hours after administration, compared with the corresponding carboxamide regioisomers
Text: Intravenous administration of the compounds of the present invention to cattle increases serum non-esterified fatty acids and decreases serum urea. In this Example, angus/angus cross calves, both heifers and steers, weighing approximately 282 pounds (128 kg) initially to 788 pounds (357.8 kg) over the course of these studies, were placed in pens at 5 calves per pen. The cattle were acclimated to the pens for at least 1 week prior to initiating the study.
Calves were fed ad libitum twice daily, (approximately 6-15 pounds (2.7-6.8 kg)/day). During the treatment day, in the A.M. period, the feeding times were staggered to ensure that all animals were fed approximately one hour before the treatments were administered. During the P.M. treatment period, the cattle were fed immediately after receiving the P.M. injection.
After taking a pretreatment (T=O) blood sample from each animal, a 40 μg per kilogram dose of a test compound was administered intravenously in the jugular vein at 6:30 A.M. and 2:30 P.M. Each test compound was administered at a concentration of 1.00-1.25 mg/ml in a treatment vehicle that was a 50/50 mixture of polyethylene glycol 200/water.
A blood sample was taken at fifteen minutes post-treatment (T+15 min). The calves were returned to their respective pens until their next treatment, approximately eight hours later. The next morning at 6:30 A.M. a blood sample was collected from all calves at 24 hours post-treatment (T+24 h). All blood samples were analyzed for the non-esterified fatty acid level (NEFA) and serum urea nitrogen level (SUN). The post-treatment NEFA and SUN levels in each individual animal were compared with the levels found before treatment.

SMILES	ΔNEFA 24 Hours [2] [µmol/L]	ΔNEFA 15 Min. [2] [µmol/L]	change in vivo at 0.04 mg/kg [2] [%]	other results
CC(C)(C)NCC(O)c1cc(Cl)c(N)c(Cl)c1 (stereo not drawn) [Clenbuterol, reference compound]				Dressing Percentage ([1]; 1 PPM in feed, day 35-49): 72.77**; Fat Pad Weight ([1]; 1 PPM in feed, day 35-49): 26.86 g; Final Weight ([1]; 1 PPM in feed, day 35-49): 3.02 kg; Hot Carcass Weights ([1]; 1 PPM in feed, day 35-49): 2191.64** g; Pen Feed Intake ([1]; 1 PPM in feed, day 35-49): 25.20 kg; Total 14 day Weight Gain ([1]; 1 PPM in feed, day 35-49): 1.29 kg; Viscera Weight ([1]; 1 PPM in feed, day 35-49): 285.45 g; Feed Efficiency F/G ([1]; 1 PPM in feed, day 35-49, pen feed intake/total pen weight): 1.99; increase in weight gain over control ([1]; 1 PPM, 14-day treatment period, P=0.1430): 2.38%; improvement of feed efficiency versus control ([1]; 1 PPM, 14-day treatment period, P=0.7320): 0.50%; increase in hot carcass weights compared to control ([1]; 1 PPM, P=0.0027): 3.25%; decrease in viscera weights with respect to control ([1]; 1 PPM, P=0.7215): 0.66%
CC(C)(Cc1ccc(Oc2ccc(C(N)=O)cn2)cc1)NC[C@H](O)COc1cccc2[nH]ncc12 [Compound 1]	820.9	554.4	-28.7	
CC(C)(Cc1ccc(Oc2ncccc2C(N)=O)cc1)NC[C@H](O)COc1cccc2[nH]ncc12 [Compound 2]	742.4	141.2	-39.3	lipolytic effects (non-esterified fatty acid levels) [2]: modest lipolytic effects; anabolic effects (change in serum urea nitrogen levels) [2]: significantly greater
CC(C)(Cc1ccc(Oc2ccc(C(N)=O)cn2)cc1)NC[C@H](O)COc1cccc2[nH]c(=S)[nH]c12 [Compound 3]	200.2	379.4	-38.2	
CC(C)(Cc1ccc(Oc2ncccc2C(N)=O)cc1)NC[C@H](O)COc1cccc2[nH]c(=S)[nH]c12 [Compound 4]	265.3	283.1	-57	lipolytic effects (non-esterified fatty acid levels) [2]: modest lipolytic effects; anabolic effects (change in serum urea nitrogen levels) [2]: significantly greater
CC(C)(Cc1ccc(Oc2ccc(C(N)=O)cn2)cc1)NC[C@H](O)COc1cccc2[nH]ccc12 [Compound 5]	-5.6	170.8	-28.6	
CC(C)(Cc1ccc(Oc2ccc(C(N)=O)cn2)cc1)NC[C@H](O)COc1cccc2[nH]c(=O)[nH]c12 [Compound 7]	-4.2	134.1	-9.7	
CC(C)(Cc1ccc(Oc2ncccc2C(N)=O)cc1)NC[C@H](O)COc1cccc2[nH]c(=O)[nH]c12 [Compound 8]	35.6	321.4	-14.2	lipolytic effects (non-esterified fatty acid levels) [2]: modest lipolytic effects; anabolic effects (change in serum urea nitrogen levels) [2]: significantly greater
CC(C)(Cc1ccc(Oc2ccccc2C(N)=O)cc1)NC[C@H](O)COc1cccc2[nH]ccc12 [Compound 9]	-15.4	99	-37	
CC(C)(Cc1ccc(Oc2cccc(Cl)c2C(N)=O)cc1)NC[C@H](O)COc1cccc2[nH]ccc12 [Compound 10]	-72.7	52.7	-20.7	
CC(C)(Cc1ccc(Oc2ccc(Cl)cc2C(N)=O)cc1)NC[C@H](O)COc1cccc2[nH]ccc12 [Compound 11]	-14.1	94	-39.4	
Cc1c[nH]c2cccc(OC[C@@H](O)CNC(C)(C)Cc3ccc(Oc4ncccc4C(N)=O)cc3)c12 [Compound 12]	-63.7	332.6	-30.1	
CC(C)(Cc1ccc(Oc2cccc(Cl)c2C(N)=O)cc1)NC[C@H](O)COc1cccc2[nH]c(C#N)cc12 [Compound 13]	32.1	118.1	-36.7	
